The target in this experiment is TcMIP (Trypanosoma cruzi, UniProt Q09734). Briefly: biochemical.
Chain of TcMIP (Q09734 30-196 limits assumed): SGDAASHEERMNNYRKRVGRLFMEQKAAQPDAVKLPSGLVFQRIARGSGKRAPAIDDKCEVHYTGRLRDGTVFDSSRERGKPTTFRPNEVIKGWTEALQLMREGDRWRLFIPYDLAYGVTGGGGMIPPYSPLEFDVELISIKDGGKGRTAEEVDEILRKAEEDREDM

For the compound `C[C@@H](c1ccccn1)N1C[C@H](CO)[C@H]2CCC[C@@H](C1=O)N2S(=O)(=O)c1cc(Cl)cc(Cl)c1` [JK236], the Kd (commonly the concentration at which binding is half-saturated) was 45.5 ± 9.2 nM. The compound `O=C1[C@@H]2CCC[C@H]([C@@H](CO)CN1Cc1ccccn1)N2S(=O)(=O)c1cc(Cl)cc(Cl)c1` [JK095, (1S,5S,6R)-10-((3,5-dichlorophenyl)sulfonyl)-5-(hydroxymethyl)-3-(pyridin-2-ylmethyl)-3,10-diazabicyclo [4.3.1]decan-2-one] registered an equilibrium dissociation constant (Kd) of 599 ± 25.5 nM.

(Values after publication doi:10.1101/2023.04.24.538046v2 (biorxiv, 2023).)
